Measured values taken from patent publication US20250171434A1, “SEC61 INHIBITORS AND USE THEREOF” (KEZAR LIFE SCIENCES, INC., priority 2022, published 2025).

How the values were obtained:
[1] = Liver Microsome Stability Assay, monkey; assay type: in vitro ADME; conditions: monkey liver microsomes 1.0 mg/mL, 1.0 uM compound, 37° C., 1 mM NADPH
How it was run: (§1)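 Compound at 1.0 uM (0.4% DMSO) was incubated at 37° C with 1.0 mg/mL liver microsomes in 0.1 M potassium phosphate, with or without 1 mM NADPH. Samples were quenched at 0 and 30 minutes.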

[2] = tested on: multiple myeloma cell line NCI-H929; test: H929 Cell Viability Assay; assay type: cell-based, human; conditions: Homo sapiens; NCI-H929 cells, 48 hours, Celltiter-Glo; read-out: 48 hr H929 Viability Celltiter-Glo: Mean EC50
How it was run: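 NCI-H929 cells, resuspended in RPMI 1640 with 10% FBS and 2 mM glutamine, were treated with compound dilutions in DMSO/media and incubated 48 hours at 37° C, 5% CO2. Viability was read by CellTiter-Glo luminescence. Compounds drawn without stereochemistry were tested as stereoisomer mixtures.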

[3] = Liver Microsome Stability Assay, mouse; assay type: in vitro ADME; conditions: mouse liver microsomes 1.0 mg/mL, 1.0 uM compound, 37° C., 1 mM NADPH
How it was run: as §1

[4] = Liver Microsome Stability Assay, human; assay type: in vitro ADME; conditions: human liver microsomes 1.0 mg/mL, 1.0 uM compound, 37° C., 1 mM NADPH
How it was run: as §1

[5] = tested on: multiple myeloma cell line U266B1; test: U266 Cell Viability Assay; assay type: cell-based; conditions: Homo sapiens, U-266; U266B1 cells, 48 hours, Celltiter-Glo; read-out: 48 hr U266 Viability Celltiter-Glo: Mean EC50
How it was run: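 Cells grown in RPMI 1640 with 10% FBS, 2 mM glutamine and penicillin/streptomycin were exposed to compound dilutions in DMSO/media for 48 hours at 37° C., 5% CO2. Viability was read by CellTiter-Glo luminescence. Undefined stereocentres mean data for stereoisomer mixtures.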

[6] = Liver Microsome Stability Assay, rat; assay type: in vitro ADME; conditions: rat liver microsomes 1.0 mg/mL, 1.0 uM compound, 37° C., 1 mM NADPH
How it was run: as §1

CD47(ss + 10)Gluc = test: Dox-Induced CD47-ss-Gluc Assay; assay type: cell-based; conditions: Flp-In 293 T-REx cells, 24 hours with doxycycline; Table 1; read-out: 24 hr Dox Inducible CD47(ss + 10)Gluc 293FRT/TO: Mean IC50
[7] = tested on: IL6R-ss+10aa/Gaussia Luciferase; test: Dox-induced IL-6R-ss-Gluc Assay; assay type: cell-based; conditions: Table 1; for IC50: Flp-In 293 T-REx cells, 24 hours with doxycycline, read-out: 24hr Dox Inducible IL6R(ss + 10)Gluc 293FRT/TO: Mean IC50; for 24hr Dox Inducible IL6R(ss + 10)Gluc 293FRT/TO: IL6R/PD1: ratio of IC50s IL6R/PD1
How it was run: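 Flp-In 293 T-REx cells stably carrying a doxycycline-inducible IL6R signal sequence+10 aa fused to Gaussia luciferase. Cells plated the day before; compound dilutions added in DMSO/media containing doxycycline and incubated at 37 °C, 5% CO2.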

[8] = tested on: IL-2-FL/Gaussia Luciferase; test: Dox Inducible IL2-FL-Gluc Assay; assay type: cell-based; conditions: Table 1; for IC50: read-out: 24 hr Dox Inducible IL2FLGluc 293FRT/TO: Mean IC50; for 24 hr Dox Inducible IL2FLGluc 293FRT/TO: IL2/PD1: ratio of IC50s IL2/PD1
How it was run: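 Flp-In 293 T-REx cells stably carrying doxycycline-inducible full-length IL-2 (aa 1-153) fused at its C-terminus to Gaussia luciferase, selected with hygromycin and blasticidin. Cells were plated the day before, then treated with compounds in DMSO/media containing doxycycline at 37° C, 5% CO2.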

[9] = tested on: PD1-ss+10aa/Gaussia Luciferase; test: Dox-Induced PD1-ss-Gluc Assay; assay type: cell-based; conditions: Flp-In 293 T-REx cells, 24 hours with doxycycline; Table 1; read-out: 24 hr Dox Inducible PD1ssGluc 293FRT/TO: Mean IC50
How it was run: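 The cell line was made by transfecting Flp-In 293 T-REx cells with a PD1 signal sequence+10aa–Gaussia luciferase fusion under T-REx control and selecting with hygromycin and blasticidin. Cells were seeded, and next day compound plus doxycycline was added at 37 °C, 5% CO2.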

[10] = Flp-In 293 T-REx cells, 24 hours with doxycycline

| SMILES | Liver Microsome Stability (Multiple Species): Monkey - % Remaining after 30 min w/ NADPH (%) [1] [%] | EC50 [2] [nM] | Liver Microsome Stability (Multiple Species): Mouse - % Remaining after 30 min w/ NADPH (%) [3] [%] | Liver Microsome Stability (Multiple Species): Human - % Remaining after 30 min w/ NADPH (%) [4] [%] | EC50 [5] [nM] | Liver Microsome Stability (Multiple Species): Rat - % Remaining after 30 min w/ NADPH (%) [6] [%] | IC50 (CD47(ss + 10)Gluc) [nM] | IC50 [7] [nM] | 24hr Dox Inducible IL6R(ss + 10)Gluc 293FRT/TO: IL6R/PD1 [7] | IC50 [8, 10] [nM] | 24 hr Dox Inducible IL2FLGluc 293FRT/TO: IL2/PD1 [8] | IC50 [9] [nM] | 24 hr Dox Inducible IL2FLGluc 293FRT/TO: Mean IC50 (nM) [8, 10] |
| --- | --- | --- | --- | --- | --- | --- | --- | --- | --- | --- | --- | --- | --- |
| N#Cc1c(/C=C/c2csc(NC(=O)c3cc(OC(F)F)cn3Cc3ccnc(F)c3)n2)ncn1C1CC1 [Compound A27, (E)-N-(4-(2-(5-cyano-1-cyclopropyl-1H-imidazol-4-yl)vinyl)thiazol-2-yl)-4-(difluoromethoxy)-1-((2-fluoropyridin-4-yl)methyl)-1H-pyrrole-2-carboxamide] | 47 | 17800 | 70 | 78 | > 25000 | 2 | 2550 | 2110 | 235 | 3090 | 340.0 | 9 | – |
| N#Cc1c(/C=C/c2csc(NC(=O)c3cc(Cl)cn3Cc3ccnc(F)c3)n2)ncn1C1CC1 [Compound A28, (E)-4-chloro-N-(4-(2-(5-cyano-1-cyclopropyl-1H-imidazol-4-yl)vinyl)thiazol-2-yl)-1-((2-fluoropyridin-4-yl)methyl)-1H-pyrrole-2-carboxamide] | 9 | > 25000 | 67 | 22 | 15500 | 2 | 1400 | 1490 | 68 | 1500 | 69.0 | 22 | – |
| O=C(Nc1nc(/C=C/c2ncn(C3CC3)c2Cl)cs1)c1cc(C(F)F)cn1Cc1ccnc(F)c1 [Compound A29, (E)-N-(4-(2-(5-chloro-1-cyclopropyl-1H-imidazol-4-yl)vinyl)thiazol-2-yl)-4-(difluoromethyl)-1-((2-fluoropyridin-4-yl)methyl)-1H-pyrrole-2-carboxamide] | 43 | > 25000 | 21 | 51 | > 25000 | 1 | > 25000 | > 25000 | >517 | > 25000 | >650 | 48 | – |
| O=C(Nc1nc(/C=C/c2ncn(C3CC3)c2Cl)cs1)c1cc(C(F)(F)F)cn1Cc1ccnc(F)c1 [Compound A30, (E)-N-(4-(2-(5-chloro-1-cyclopropyl-1H-imidazol-4-yl)vinyl)thiazol-2-yl)-1-((2-fluoropyridin-4-yl)methyl)-4-(trifluoromethyl)-1H-pyrrole-2-carboxamide] | 70 | > 25000 | 44 | 63 | > 25000 | <1 | 2380 | 2160 | 292 | 2130 | 290.0 | 7 | – |
| O=C(Nc1nc(/C=C/c2ncn(C3CC3)c2Cl)cs1)c1cc(SC(F)(F)F)cn1Cc1ccnc(F)c1 [Compound A31, (E)-N-(4-(2-(5-chloro-1-cyclopropyl-1H-imidazol-4-yl)vinyl)thiazol-2-yl)-1-((2-fluoropyridin-4-yl)methyl)-4-((trifluoromethyl)thio)-1H-pyrrole-2-carboxamide] | 25 | 22700 | 82 | 10 | > 25000 | 65 | 2210 | 1260 | 317 | > 25000 | >6300 | 4 | – |
| O=C(Nc1nc(/C=C/c2ncn(C3CC3)c2Cl)cs1)c1cc(SC(F)F)cn1Cc1ccnc(F)c1 [Compound A32, (E)-N-(4-(2-(5-chloro-1-cyclopropyl-1H-imidazol-4-yl)vinyl)thiazol-2-yl)-4-((difluoromethyl)thio)-1-((2-fluoropyridin-4-yl)methyl)-1H-pyrrole-2-carboxamide] | 2 | > 25000 | 27 | 1 | > 25000 | 5 | 3060 | 1940 | 187 | – | >2400 | 10 | I.A |
| CN[C@H]1CC[C@@H](/C=C/c2csc(NC(=O)c3cccn3Cc3ccncc3)n2)CC1 [Compound B11, N-(4-((E)-2-((1s,4s)-4-(methylamino)cyclohexyl)vinyl)thiazol-2-yl)-1-(pyridin-4-ylmethyl)-1H-pyrrole-2-carboxamide] | 3 | 24700 | 54 | 1 | > 25000 | 32 | > 25000 | > 25000 | >1.3 | 14100 | 0.8 | 18700 | – |
